The values that follow come from patent US11339130B1 (Blade Therapeutics, Inc., priority 2016, dated 2022).

Like-named read-outs stand apart in the source and are kept apart here.

Assay [1] concerns the target T1, Human Calpain 1/NS1 (Homo sapiens, UniProt P07384).
T1 sequence (P07384 1-714): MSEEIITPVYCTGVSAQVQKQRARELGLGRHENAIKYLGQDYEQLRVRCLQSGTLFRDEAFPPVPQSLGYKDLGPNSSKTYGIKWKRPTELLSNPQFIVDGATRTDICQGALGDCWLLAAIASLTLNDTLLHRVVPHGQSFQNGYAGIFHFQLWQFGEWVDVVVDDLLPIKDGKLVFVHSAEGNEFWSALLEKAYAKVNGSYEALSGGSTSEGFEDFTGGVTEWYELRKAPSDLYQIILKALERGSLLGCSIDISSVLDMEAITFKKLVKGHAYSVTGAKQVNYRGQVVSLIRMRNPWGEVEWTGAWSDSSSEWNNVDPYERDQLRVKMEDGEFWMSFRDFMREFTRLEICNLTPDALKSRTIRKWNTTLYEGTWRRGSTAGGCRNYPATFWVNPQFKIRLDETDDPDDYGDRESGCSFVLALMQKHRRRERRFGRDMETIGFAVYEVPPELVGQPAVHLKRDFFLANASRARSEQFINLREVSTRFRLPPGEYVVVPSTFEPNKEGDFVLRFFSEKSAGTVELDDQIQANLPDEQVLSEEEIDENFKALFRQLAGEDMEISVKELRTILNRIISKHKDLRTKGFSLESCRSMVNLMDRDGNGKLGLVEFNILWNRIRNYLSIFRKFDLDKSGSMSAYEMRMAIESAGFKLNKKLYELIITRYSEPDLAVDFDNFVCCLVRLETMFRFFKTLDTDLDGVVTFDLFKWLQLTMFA
T1 sequence (P04632 1-268 partner): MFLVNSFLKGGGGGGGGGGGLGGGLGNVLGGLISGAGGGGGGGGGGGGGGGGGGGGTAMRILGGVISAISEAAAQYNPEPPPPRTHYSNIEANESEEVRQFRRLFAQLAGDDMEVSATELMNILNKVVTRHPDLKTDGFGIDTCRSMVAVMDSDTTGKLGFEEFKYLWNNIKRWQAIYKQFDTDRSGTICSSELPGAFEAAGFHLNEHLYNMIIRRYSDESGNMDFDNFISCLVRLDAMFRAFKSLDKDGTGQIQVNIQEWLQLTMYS
Briefly: Calpain inhibition continuous fluorescence (FRET) assay, Human Calpain 1/NS1. Conditions: read-out: Human Calpain 1/NS1 IC50. It counts as biochemical. The method, boiled down:
(§1)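 Continuous FRET read (ex 490/em 520 nm, 10 min) of calpain 1, 2 or 9 cleaving an internally quenched 5-FAM peptide, triggered by substrate with CaCl2 after enzyme–inhibitor incubation at ambient 25 °C, pH 7.5 Tris/NaCl/DTT buffer. IC50 from initial rates (1-5 min) via 4-parameter fit.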

Assay [2] concerns the target T2, Human Calpain 2/NS1 (Homo sapiens, UniProt P17655).
T2 sequence (P17655 1-700): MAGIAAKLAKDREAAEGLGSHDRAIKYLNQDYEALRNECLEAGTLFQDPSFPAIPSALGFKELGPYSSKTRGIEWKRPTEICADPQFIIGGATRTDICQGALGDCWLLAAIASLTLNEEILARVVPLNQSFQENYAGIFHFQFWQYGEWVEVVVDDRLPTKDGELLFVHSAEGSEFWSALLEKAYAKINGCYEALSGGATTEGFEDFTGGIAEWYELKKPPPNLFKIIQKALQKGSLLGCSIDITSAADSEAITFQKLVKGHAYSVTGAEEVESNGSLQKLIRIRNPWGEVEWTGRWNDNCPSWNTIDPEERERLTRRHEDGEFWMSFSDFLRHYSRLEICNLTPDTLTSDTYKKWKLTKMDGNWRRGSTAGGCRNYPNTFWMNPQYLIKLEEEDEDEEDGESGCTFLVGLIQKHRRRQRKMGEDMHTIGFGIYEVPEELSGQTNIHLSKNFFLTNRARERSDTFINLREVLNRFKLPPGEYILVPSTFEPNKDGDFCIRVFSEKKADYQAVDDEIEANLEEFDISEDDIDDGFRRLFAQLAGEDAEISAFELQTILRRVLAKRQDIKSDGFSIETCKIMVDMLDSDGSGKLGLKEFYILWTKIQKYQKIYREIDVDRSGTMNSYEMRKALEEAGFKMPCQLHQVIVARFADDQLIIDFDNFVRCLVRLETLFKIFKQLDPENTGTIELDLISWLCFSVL
T2 sequence (P04632 1-268 partner): T1 sequence (P04632 1-268 partner)
Kind of assay: Calpain inhibition continuous fluorescence (FRET) assay, Human Calpain 2/NS1. The assay is classed as biochemical. Conditions: read-out: Human Calpain 2/NS1 IC50. A digest of the protocol: as §1

Assay [3] has as its target T3, Human Calpain 9/NS1 (Homo sapiens, UniProt O14815).
T3 sequence (O14815 1-690): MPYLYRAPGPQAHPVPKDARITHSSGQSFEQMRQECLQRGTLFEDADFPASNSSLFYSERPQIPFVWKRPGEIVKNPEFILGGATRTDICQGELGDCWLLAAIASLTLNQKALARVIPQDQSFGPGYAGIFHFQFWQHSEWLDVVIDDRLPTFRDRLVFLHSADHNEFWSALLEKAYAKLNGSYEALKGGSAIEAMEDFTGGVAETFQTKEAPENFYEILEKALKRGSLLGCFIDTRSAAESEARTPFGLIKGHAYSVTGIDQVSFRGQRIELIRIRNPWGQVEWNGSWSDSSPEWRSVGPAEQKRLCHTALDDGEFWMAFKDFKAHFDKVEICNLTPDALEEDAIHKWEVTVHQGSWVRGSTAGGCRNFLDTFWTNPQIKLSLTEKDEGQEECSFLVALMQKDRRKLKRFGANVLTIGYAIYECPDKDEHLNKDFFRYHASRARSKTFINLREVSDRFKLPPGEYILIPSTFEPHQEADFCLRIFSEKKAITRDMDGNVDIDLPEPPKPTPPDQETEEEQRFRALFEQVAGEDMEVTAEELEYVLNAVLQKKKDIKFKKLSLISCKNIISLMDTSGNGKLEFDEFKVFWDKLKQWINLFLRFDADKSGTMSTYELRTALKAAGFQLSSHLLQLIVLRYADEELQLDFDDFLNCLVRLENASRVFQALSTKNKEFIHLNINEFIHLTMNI
T3 sequence (P04632 1-268 partner): T1 sequence (P04632 1-268 partner)
Kind of assay: Calpain inhibition continuous fluorescence (FRET) assay, Human Calpain 9/NS1. It counts as biochemical. The settings on record: read-out: Human Calpain 9/NS1 IC50. A digest of the protocol:
as §1

The subject of assay [4] is Calpain activity in SH-SY5Y cells (SBDP-150). Briefly: SH-SY5Y Spectrin western blot assay (SBDP-150 breakdown product, A23187-induced). It counts as cell-based. The settings on record: read-out: SH-SY5Y Spectrin IC50. In general terms: A western blot detects proteins with antibodies after separation by electrophoresis.
The subject of assay [5] is Calpain activity in SH-SY5Y cells. Kind of assay: SH-SY5Y + AMC fluorescence assay (Suc-LLVY-AMC substrate). The assay is classed as cell-based. Conditions: read-out: SH-SY5Y + AMC IC50.
[6] abbreviates: Homo sapiens, SH-SY5Y cells, A23187-induced SBDP-150, western blot.
The mark [7] stands for this setting: Homo sapiens, Column D, SH-SY5Y cells, A23187-induced SBDP-150.

Turning to `Cc1nc(-c2ccccc2)c(C(=O)N[C@@H](Cc2c[nH]c3ccccc23)C(=O)C(N)=O)o1` [Compound 389, (S)—N-(4-amino-1-(1H-indol-3-yl)-3,4-dioxobutan-2-yl)-2-methyl-4-phenyloxazole-5-carboxamide], the IC50 in assay [1] is < 3 µM; in assay [2] it was < 3 µM; in assay [3], < 3 µM; in assay [4] (setting [6]), < 10 µM; in assay [5] it was < 10 µM.

Regarding `Cn1cc(C(=O)NC(Cc2ccccc2)C(=O)C(N)=O)c(N2CCN(C(=O)OC(C)(C)C)CC2)n1` (stereo not drawn) [Compound 603, Tert-Butyl 4-(4-((4-amino-3,4-dioxo-1-phenylbutan-2-yl)carbamoyl)-1-methyl-1H-pyrazol-3-yl)piperazine-1-carboxylate], the IC50 in assay [1] was 3 to 10 µM; in assay [2], 3 to 10 µM; in assay [3], 3 to 10 µM; in assay [4] (Homo sapiens, SH-SY5Y) it was > 25 µM; in assay [5], > 25 µM.

With `Cc1ccccc1-c1nn(C)cc1C(=O)N[C@@H](Cc1ccccc1)C(=O)C(N)=O` [Compound 171, (S)—N-(4-amino-3,4-dioxo-1-phenylbutan-2-yl)-1-methyl-3-(o-tolyl)-1H-pyrazole-4-carboxamide], the IC50 in assay [1] (Column A) was < 3 µM; in assay [2] (Column B), 3 to 10 µM; in assay [3] (Column C), < 3 µM; in assay [4] (setting [7]), > 25 µM; in assay [5] (Column E), 10 to 25 µM.

On to `Cn1cc(C(=O)NC(Cc2ccccc2)C(=O)C(N)=O)c(-n2ncc3ccccc32)n1` (stereo not drawn) [Compound 530, N-(4-amino-3,4-dioxo-1-phenylbutan-2-yl)-3-(1H-indazol-1-yl)-1-methyl-1H-pyrazole-4-carboxamide], for which the IC50 was < 3 µM in assay [1]; < 3 µM in assay [2]; < 3 µM in assay [3]; > 25 µM in assay [4] (setting [6]); > 25 µM in assay [5].

Regarding `Cc1cc(C(=O)NC(Cc2ccccc2)C(=O)C(N)=O)c(-n2cc3ccccc3n2)s1` (stereo not drawn) [Compound 428, N-(4-amino-3,4-dioxo-1-phenylbutan-2-yl)-2-(2H-indazol-2-yl)-5-methylthiophene-3-carboxamide], the IC50 was < 3 µM in assay [1]; < 3 µM in assay [2]; < 3 µM in assay [3]; < 10 µM in assay [4] (setting [6]); > 25 µM in assay [5].

For `Cc1noc(-c2ccccc2)c1C(=O)N[C@@H](Cc1ccc(O)cc1)C(=O)C(N)=O` [Compound 492, (S)—N-(4-amino-1-(4-hydroxyphenyl)-3,4-dioxobutan-2-yl)-3-methyl-5-phenylisoxazole-4-carboxamide], the IC50 in assay [1] is < 3 µM; in assay [2] it was < 3 µM; in assay [3], < 3 µM; in assay [4] (setting [6]), 10 to 25 µM; in assay [5] it was > 25 µM.

In the case of `Cc1cccc(-c2ccc(-n3nc(C)cc3C(=O)N[C@@H](Cc3ccccc3)C(=O)C(N)=O)cc2)c1` [Compound 218, (S)—N-(4-amino-3,4-dioxo-1-phenylbutan-2-yl)-3-methyl-1-(3′-methyl-[1,1′-biphenyl]-4-yl)-1H-pyrazole-5-carboxamide], the IC50 in assay [1] (Column A) was < 3 µM; in assay [2] (Column B) it was < 3 µM; in assay [3] (Column C) it was < 3 µM; in assay [4] (setting [7]) it was 10 to 25 µM; in assay [5] (Column E), > 25 µM.

For `Cn1cc(C(=O)NC(Cc2ccccc2)C(=O)C(N)=O)c(-c2cccc3cnccc23)n1` (stereo not drawn) [Compound 607, N-(4-amino-3,4-dioxo-1-phenylbutan-2-yl)-3-(isoquinolin-5-yl)-1-methyl-1H-pyrazole-4-carboxamide], the IC50 in assay [1] is < 3 µM; in assay [2], < 3 µM; in assay [3], < 3 µM; in assay [4] (setting [6]) it was 10 to 25 µM; in assay [5] it was > 25 µM.

Regarding `Cc1cc(C(=O)NC(Cc2ccccc2)C(=O)C(N)=O)n(-c2ccnc(C(C)C)n2)n1` (stereo not drawn) [Compound 431, N-(4-amino-3,4-dioxo-1-phenylbutan-2-yl)-1-(2-isopropylpyrimidin-4-yl)-3-methyl-1H-pyrazole-5-carboxamide], the IC50 in assay [1] is < 3 µM; in assay [2], < 3 µM; in assay [3], < 3 µM; in assay [4] (setting [6]), > 25 µM; in assay [5] it was < 10 µM.

`Cc1cc(C(=O)NC(Cc2ccccc2)C(=O)C(N)=O)n(-c2cccc(COCc3ccccc3)c2)n1` (stereo not drawn) [Compound 438, N-(4-amino-3,4-dioxo-1-phenylbutan-2-yl)-1-(3-((benzyloxy)methyl)phenyl)-3-methyl-1H-pyrazole-5-carboxamide]: the IC50 in assay [1] was < 3 µM; in assay [2] it was < 3 µM; in assay [3] it was < 3 µM; in assay [4] (setting [6]) it was 10 to 25 µM; in assay [5] it was 10 to 25 µM.

For `Cn1cc(C(=O)NC(CCC(F)(F)F)C(=O)C(N)=O)c(-c2ccccc2)n1` (stereo not drawn) [Compound 422, N-(1-amino-6,6,6-trifluoro-1,2-dioxohexan-3-yl)-1-methyl-3-phenyl-1H-pyrazole-4-carboxamide], the IC50 in assay [1] is > 10 µM; in assay [2] it was 3 to 10 µM; in assay [3], 3 to 10 µM; in assay [4] (setting [6]), > 25 µM; in assay [5], > 25 µM.

With “Methyl (S)-(4-(5-((4-amino-3,4-dioxo-1-phenylbutan-2-yl)carbamoyl)-3-methyl-1H-pyrazol-1-yl)benzyl)carbamate [Compound 161]”, the IC50 is < 3 µM in assay [1] (Column A); < 3 µM in assay [2] (Column B); < 3 µM in assay [3] (Column C); < 10 µM in assay [4] (Column D, SH-SY5Y cells, A23187-induced SBDP-150); > 25 µM in assay [5] (Column E).
